Source: patent US20260305608A1, “MIXTURE COMBINATIONS FOR CROP PROTECTION” (ADAMA MAKHTESHIM LTD., priority 2023, published 2026)

Experiments:
S. littoralis [1] = assay: Synergistic activity against S. littoralis, 2 days after larvae exposition (% control; Colby); assay type: in vivo, Spodoptera littoralis
Experimental: (§1) A mixture combination were prepared by thoroughly mixing Tau-fluvalinate (weight %) with a crop protection chemical compound such as Flupyrimin, Isocycloseram, Methoxyfenozide and Garlic extract (weight %).
(§2) Different concentrations of each of the active ingredients may be applied to different species of insects. The percent controls are determined sometime after treatment.
(§3) A synergistic effect exists whenever the action of a combination of active ingredients is greater than the sum of the action of each of the ingredients alone. Therefore, a synergistic combination is a combination of active ingredients having an action that is greater than the sum of the action of each active ingredient alone, and a synergistically effective amount is an effective amount of a synergistic combination.
(§4) Colby's method is used to determine if synergy exists for a combination of active ingredients. According to Colby, the expected action (E) of active ingredients A+B is:
(§5) E=A+B−(AB/100) • where E=expected efficacy, A and B=the efficacy of two active ingredients A and B at a given dose.
(§6) When the percentage of control observed (O) for the combination is greater than the expected (E) percentage, there is a synergistic effect. The synergism ratio (R) is calculated as the ratio between the […].
(§7) The insecticidal compounds A (Tau fluvalinate) and B (mix partner) are formulated as equivalent compositions to eliminate the effects of differing formulation inerts on biological activity. Efficacy of the insecticidal compositions is evaluated with reference to a scale of 0% to 100% in comparison with untreated control plots. 0 means no damage and 100 means complete destruction of the harmful pests.
(§8) The experiments were conducted by applying either by synthesis/extraction or commercially available formulations of Tau fluvalinate and other mixture partners, alone or with their tank-mixed compositions with the same weight ratio. The compositions were diluted with water or some other suitable solvents to the stated concentration of the active compounds.
(§9) Each formulation with active ingredient is diluted with water or other suitable solvent(s) to the ppm (parts per million) level and biological efficacy trials on pests are conducted.

B. tabaci = assay: Synergistic activity against B. tabaci, 3 days after nymph exposition (% control; Colby); assay type: in vivo, Bemisia tabaci
Experimental: as §1, §2, §3, §4, §5, §6, §7, §8, §9

S. littoralis [2] = assay: Synergistic activity against S. littoralis, 3 days after larvae exposition (% control; Colby); assay type: in vivo, Spodoptera littoralis
Experimental: as §1, §2, §3, §4, §5, §6, §7, §8, §9

Row | Structure (SMILES) | Observed % control (O) (S. littoralis [1]; Table 4B, 8 ppm) [%] | Observed % control (O) (B. tabaci; Table 4A, 0.2 ppm) [%] | Observed % control (O) (S. littoralis [1]; Table 1B, 10 ppm) [%] | Observed % control (O) (S. littoralis [2]; Table 3, 2 ppm) [%] | also measured
1 | CCN1OC[C@@H](NC(=O)c2ccc(C3=NO[C@@](c4cc(Cl)c(F)c(Cl)c4)(C(F)(F)F)C3)cc2C)C1=O [Isocycloseram] | 12.2 | 25.5 | – | – | –
2 | CC(C)C(Nc1ccc(C(F)(F)F)cc1Cl)C(=O)OC(C#N)c1cccc(Oc2ccccc2)c1 (mixture of isomers) [Tau- Fluvalinate, (RS)-α-Cyano-3-phenoxybenzyl N-(2-chloro-α,α,α-trifluoro-p-tolyl)-D-valinate] | 45 | 10.4 | 43 | 22.5 | Observed % control (O) (S. littoralis [1]; Table 4B, 16 ppm): 62.5%; Observed % control (O) (B. tabaci; Table 1A, 0.1 ppm): 14%; Observed % control (O) (B. tabaci; Table 2, 20 ppm): 28.1%; Observed % control (O) (S. littoralis [2]; Table 3, 0.2 ppm): 2.5%; Observed % control (O) (S. littoralis [2]; Table 3, 10 ppm): 67.5%
3 | COc1cccc(C(=O)NN(C(=O)c2cc(C)cc(C)c2)C(C)(C)C)c1C [Methoxyfenozide] | – | – | – | 70 | Observed % control (O) (S. littoralis [2]; Table 3, 1 ppm): 52.5%
4 | O=C(/N=c1\ccccn1Cc1ccc(Cl)nc1)C(F)(F)F [Flupyrimin] | – | – | 0 | – | Observed % control (O) (S. littoralis [1]; Table 1B, 1 ppm): 0%; Observed % control (O) (S. littoralis [1]; Table 1B, 100 ppm): 18%
